IC50 and EC50 data for 31 compounds are collected here from patent US10836770B2, “Imidazopyridazine compounds useful as modulators of IL-12, IL-23 and/or INF alpha responses” (priority 2016, dated 2020).

Like-named read-outs stand apart in the source and are kept apart here.

Test [1] concerns IL-23-stimulated Kit225 T cells with STAT-dependent luciferase reporter. The test is described as follows: Kit225 T cell assay, IL-23 stimulated STAT-dependent luciferase reporter. It is filed as cell-based, human. How it is done: (§1) Kit225 T cells with a stably-integrated STAT-dependent luciferase reporter were plated in RPMI (GIBCO) containing 10% heat-inactivated FBS (GIBCO) and 100 U/mL PenStrep (GIBCO). The cells were then stimulated with either 20 ng/mL human recombinant IL-23 or 200 U/mL human recombinant IFNα (PBL InterferonSource) for 5-6 hours. Luciferase expression was measured using the STEADY-GLO® Luciferase Assay System (PROMEGA®) according to the manufacturer's instructions.
(In general: Reporter assays use an easily measured gene product as a stand-in for the process of interest.)

Test [2] deals with T1, recombinantly expressed His-tagged protein corresponding to amino acids 575-869 of human Tyk2 (Homo sapiens, UniProt P29597).
T1 construct: made in house
T1 sequence (P29597 with tags, fused parts or gaps): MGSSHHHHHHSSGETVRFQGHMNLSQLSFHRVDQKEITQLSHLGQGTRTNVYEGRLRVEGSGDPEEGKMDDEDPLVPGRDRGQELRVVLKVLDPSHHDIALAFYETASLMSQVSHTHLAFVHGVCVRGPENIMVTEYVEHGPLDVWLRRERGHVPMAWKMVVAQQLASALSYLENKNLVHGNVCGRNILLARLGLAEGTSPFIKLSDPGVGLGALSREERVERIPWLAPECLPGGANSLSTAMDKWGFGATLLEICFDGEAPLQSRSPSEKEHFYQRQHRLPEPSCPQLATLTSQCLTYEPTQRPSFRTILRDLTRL
The experiment in a line: Probe displacement assay (scintillation proximity, radiolabeled probe). It is filed as binding. Here is the method: The probe displacement assay is conducted as follows: In a […], test compounds along with recombinantly expressed His-tagged protein corresponding to amino acids 575-869 of human Tyk2 (sequence shown below) at 2.5 nM, 40 nM ((R)—N-(1-(3-(8-methyl-5-(methylamino)-8H-imidazo[4,5-d]thiazolo[5,4-b]pyridin-2-yl)phenyl)ethyl)-2-([^3H]methylsulfonyl)benzamide) (preparation described below) and 80 μg/mL Copper His-Tag scintillation proximity assay beads (Perkin Elmer, Catalog #RPNQ0095) in 50 mM HEPES, pH 7.5, containing 100 μg/mL bovine serum albumin and 5% DMSO were incubated for 30 minutes at room temperature. […] The IC50 value is defined as the concentration of test compound required to inhibit radiolabeled probe binding by 50%.
Protein Sequence of recombinant Hig-tagged Tyk2 (575-869):
The preparation of radiolabeled probe, (R)—N-(1-(3-(8-methyl-5-(methylamino)-8H-imidazo[4,5-d]thiazolo[5,4-b]pyridin-2-yl)phenyl)ethyl)-2-([^3H]methylsulfonyl)benzamide, was performed as described below: […]
In general terms: SPA uses beads or plates that emit light when radiolabelled molecules are held near them.

Test [3] has as its system IFNα-stimulated Kit225 T cells with STAT-dependent luciferase reporter. The experiment in a line: Kit225 T cell assay, IFNα stimulated STAT-dependent luciferase reporter. The format is cell-based, human. Here is the method: as §1
The mark [4] stands for this setting: Homo sapiens, KIT225, read-out: IL-23 Kit225 Reporter, LE (IC50, uM).
Setting [5] is: Homo sapiens, KIT225, read-out: IFNa Kit225 Reporter, LE (IC50, uM).

For orientation: IC50 means the concentration at which inhibition is half-maximal. Broadly, the EC50 is the midpoint of the concentration-response curve.

For `CCNC(=O)c1nscc1Nc1cc(NC)c2ncc(C(=O)NCCOC)n2n1` [Example 72], the IC50 turned out to be 0.14 µM in test [1] (setting [4]) and 0.07 µM in test [3] (setting [5]). In test [2], the concentration giving a half-maximal response (EC50) was found to be 0.00578 µM.
Taken in the same sequence, the figures for `CNc1cc(Nc2ccoc2C(=O)Nc2ccc(OC)nc2)nn2c(C(=O)NC3CC3)cnc12` [Example 55] were 0.06 µM, 0.03 µM and 0.00287 µM.
For `[2H]C([2H])([2H])NC(=O)c1nscc1Nc1cc(NC)c2ncc(C(=O)NCCOC)n2n1` [Example 69], the half-maximal inhibitory concentration (IC50) in test [1] (setting [4]) was found to be 0.05 µM; in test [3] (setting [5]), 0.01 µM. For the same compound, in test [2], the EC50 turned out to be 0.00229 µM.
For `CNc1cc(Nc2cn(C)nc2C(=O)Nc2cccc(C)c2)nn2c(C(=O)NC3CC3)cnc12` [Example 22] the same measures were 0.27 µM, 0.35 µM and 0.02 µM.
Taken in the same sequence, the figures for `CCn1cc(Nc2cc(NC)c3ncc(C(=O)NC4CC4)n3n2)c(C(=O)Nc2cncnc2)n1` [Example 29] were 0.24 µM, 1.04 µM and 0.1 µM.
`CNc1cc(Nc2ccoc2C(=O)Nc2cccnc2)nn2c(C(=O)NC3CC3)cnc12` [Example 58]: the IC50 in test [1] (setting [4]) turned out to be 0.15 µM; in test [3] (setting [5]), 0.11 µM. For the same compound, the EC50 in test [2] came out at 0.00361 µM.
Taken in the same sequence, the figures for `CNc1cc(Nc2ccoc2C(=O)NC(C)C)nn2c(C(=O)NC3CC3)cnc12` [Example 54] were 0.17 µM, 0.05 µM and 0.00606 µM.
For `CCNC(=O)c1ncsc1Nc1cc(NC)c2ncc(C(=O)NC3CC3)n2n1` [Example 79] the same measures were 0.32 µM, 0.15 µM and 0.02 µM.
For `CNc1cc(Nc2cn(C)nc2C(=O)Nc2ccc(OC)nc2)nn2c(C(=O)NC3CC3)cnc12` [Example 11] the same measures were 0.52 µM, 0.48 µM and 0.02 µM.
Consider `CNc1cc(Nc2cn(C)nc2C(=O)Nc2ccc(N(C)C)cc2)nn2c(C(=O)NC3CC3)cnc12` [Example 27], for which the IC50 is 0.02 µM in test [1] (setting [4]) and 0.16 µM in test [3] (setting [5]). In addition, in test [2], the half-maximal effective concentration (EC50) stood at 0.0068 µM.
Taken in the same sequence, the figures for `CNc1cc(Nc2cc(C(=O)Nc3ccccc3)nn2C)nn2c(C(=O)NC3CC3)cnc12` [Example 40] were 12.5 µM, 12.5 µM and 0.08 µM.
Taken in the same sequence, the figures for `CNc1cc(Nc2csnc2C(=O)N[C@@H]2C[C@@H]2F)nn2c(C(=O)NC3CC3)cnc12` [Example 64] were 0.08 µM, 0.06 µM and 0.00199 µM.
Taken in the same sequence, the figures for `CNc1cc(Nc2sc(C)nc2C(=O)NC(C)C)nn2c(C(=O)NC3CC3)cnc12` [Example 85] were 0.256 µM, 0.224 µM and 0.0267 µM.
With `CNc1cc(Nc2cn(C)nc2C(=O)NC2CCC2)nn2c(C(=O)NC3CC3)cnc12` [Example 19], the 50% inhibitory concentration (IC50) in test [1] (setting [4]) turned out to be 0.59 µM; in test [3] (setting [5]) it was 12.5 µM. In test [2], the EC50 amounted to 0.1 µM.
As to `CNC(=O)c1ncsc1Nc1cc(NC)c2ncc(C(=O)NC3CC3)n2n1` [Example 77], the IC50 in test [1] (Kit225 T cells, 20 ng/mL human recombinant IL-23, 5-6 hours, luciferase, read-out: IL-23 Kit225 Reporter, LE (IC50)) was 0.57 µM; in test [3] (Kit225 T cells, 200 U/mL human recombinant IFNα, 5-6 hours, luciferase, read-out: IFNa Kit225 Reporter, LE (IC50)), 0.22 µM. Moreover, in test [2] (2.5 nM Tyk2 (575-869), 40 nM [3H] probe, 30 minutes at room temperature, read-out: Probe Displacement EC50), the half-maximal effective concentration (EC50) is 0.02 µM.
Take `CNc1cc(Nc2cn(C)nc2C(=O)Nc2ccccc2)nn2c(C(=O)N[C@@H]3C[C@@H]3F)cnc12` [Example 15]: the values for the concentration for half-maximal inhibition (IC50) in test [1] (setting [4]) and in test [3] (setting [5]) were 0.2 µM and 0.11 µM, respectively. Moreover, the EC50 in test [2] was found to be 0.00937 µM.
Taken in the same sequence, the figures for `CNc1cc(Nc2scnc2C(=O)NC(C)C)nn2c(C(=O)NC3CC3)cnc12` [Example 81] were 0.3 µM, 0.31 µM and 0.00324 µM.
Taken in the same sequence, the figures for `CCNC(=O)c1nscc1Nc1cc(NC)c2ncc(C(=O)N[C@@H]3C[C@@H]3F)n2n1` [Example 73] were 0.16 µM, 0.2 µM and 0.02 µM.
Take `CNc1cc(Nc2cnn(C)c2C(=O)Nc2ccccc2)nn2c(C(=O)NC3CC3)cnc12` [Example 38]: the IC50 amounted to 4.46 µM in test [1] (setting [4]) and 12.5 µM in test [3] (setting [5]). Besides, the concentration for a half-maximal effect (EC50) in test [2] came to 0.05 µM.
For `CCNC(=O)c1occc1Nc1cc(NC)c2ncc(C(=O)NC3CC3)n2n1` [Example 52] the same measures were 0.1 µM, 0.06 µM and 0.00673 µM.
Taken in the same sequence, the figures for `CNC(=O)c1n[nH]cc1Nc1cc(NC)c2ncc(C(=O)NC3CC3)n2n1` [Example 32, N-cyclopropyl-6-((3-(methylcarbamoyl)-1H-pyrazol-4-yl)amino)-8-(methylamino)imidazo[1,2-b]pyridazine-3-carboxamide] were 0.83 µM, 1.65 µM and 0.03 µM.
Taken in the same sequence, the figures for `CNC(=O)c1ncsc1Nc1cc(NC)c2ncc(C(=O)NC3CC3)n2n1` [Example 78, 5-((3-(cyclopropylcarbamoyl)-8-(methylamino)imidazo[1,2-b]pyridazin-6-yl)amino)-N-methylthiazole-4-carboxamide] were 0.12 µM, 0.26 µM and 0.01 µM.
As to `CNC(=O)c1cn(C)nc1Nc1cc(NC)c2ncc(C(=O)NC3CC3)n2n1` [Example 35, N-cyclopropyl-6-((1-methyl-4-(methylcarbamoyl)-1H-pyrazol-3-yl)amino)-8-(methylamino)imidazo[1,2-b]pyridazine-3-carboxamide], the results for the half-maximal inhibitory concentration (IC50) in test [1] (setting [4]) and in test [3] (setting [5]) were 1.09 µM and 0.47 µM, respectively. For the same compound, the EC50 in test [2] is 0.00483 µM.
Take `CCn1cc(Nc2cc(NC)c3ncc(C(=O)NC4CC4)n3n2)c(C(=O)NC)n1` [Example 28, N-cyclopropyl-6-((1-ethyl-3-(methylcarbamoyl)-1H-pyrazol-4-yl)amino)-8-(methylamino)imidazo[1,2-b]pyridazine-3-carboxamide]: the IC50 in test [1] (setting [4]) came out at 0.21 µM; in test [3] (setting [5]), 0.4 µM. Also, the concentration for a half-maximal effect (EC50) in test [2] is 0.02 µM.
As for `[2H]C([2H])([2H])NC(=O)c1occc1Nc1cc(NC)c2ncc(C(=O)NC3CC3)n2n1` [Example 53], the IC50 was 0.06 µM in test [1] (setting [4]) and 0.07 µM in test [3] (setting [5]). Moreover, in test [2], the EC50 was 0.00282 µM.
In the case of `CCNC(=O)c1nscc1Nc1cc(NC)c2ncc(C(=O)NC3CC3)n2n1` [Example 62], the figures for the IC50 in test [1] (setting [4]) and in test [3] (setting [5]) were 0.54 µM and 0.18 µM, respectively. In addition, the EC50 in test [2] is 0.0093 µM.
Taken in the same sequence, the figures for `CNc1cc(Nc2ccsc2C(=O)NC(C)C)nn2c(C(=O)NC3CC3)cnc12` [Example 44] were 0.14 µM, 0.07 µM and 0.01 µM.
Taken in the same sequence, the figures for `CNc1cc(Nc2scnc2C(=O)Nc2ccccc2)nn2c(C(=O)NC3CC3)cnc12` [Example 82] were 0.19 µM, 0.35 µM and 0.00395 µM.
For `[2H]C([2H])([2H])NC(=O)c1sccc1Nc1cc(NC)c2ncc(C(=O)NC3CC3)n2n1` [Example 47] the same measures were 0.06 µM, 0.05 µM and 0.00513 µM.
As to `[2H]C([2H])([2H])NC(=O)c1nscc1Nc1cc(NC)c2ncc(C(=O)N[C@@H]3C[C@@H]3F)n2n1` [Example 68], the half-inhibitory concentration (IC50) worked out at 0.14 µM in test [1] (setting [4]) and 0.05 µM in test [3] (setting [5]). Moreover, the EC50 in test [2] was found to be 0.00278 µM.
Turning to `CNc1cc(Nc2csnc2C(=O)Nc2ccc(OC)cc2)nn2c(C(=O)NC3CC3)cnc12` [Example 63], in test [2], the EC50 amounted to 0.00604 µM. Besides, the IC50 in test [3] (setting [5]) turned out to be 0.29 µM.
